Measured values: publication PMC8320979, “Probing the role of the residues in the active site of the transaminase from Thermobaculum terrenum” (PLoS ONE, 2021)

How the values were obtained:
Assay in all cases: pre-steady-state half-reaction of the PLP form, aldimine decrease at […] nm
Type in all cases: biochemical
[1] = target: T1, TaTT (transaminase from Thermobaculum terrenum) (Thermobaculum terrenum, UniProt D1CCW1, G40V/R42S/Y100F/S114R); conditions: mP3O1; 50 mM CHES pH 9.0, 40 °C; no amino acceptor; constant from kobs vs. substrate; read-out: pH 9.0, CHES buffer, 40°C / KD, / mM
T1 construct: gene ilvE; N-terminal His6TEV-tag, expressed in E. coli BL21(DE3)pLys; tag cut by TEV for crystals (309 visible residues, 5 N-terminal and 3 C-terminal residues invisible); functional dimer

[2] = target: T2, TaTT (transaminase from Thermobaculum terrenum) (Thermobaculum terrenum, UniProt D1CCW1, G40V/Y100F); conditions: mP2; 50 mM CHES pH 9.0, 40 °C; no amino acceptor; constant from kobs vs. substrate; read-out: pH 9.0, CHES buffer, 40°C / KD, / mM
T2 construct: gene ilvE; N-terminal His6TEV-tag, expressed in E. coli BL21(DE3)pLys; tag cut by TEV for crystals (309 visible residues, 5 N-terminal and 3 C-terminal residues invisible); functional dimer

[3] = target: T3, TaTT (transaminase from Thermobaculum terrenum) (Thermobaculum terrenum, UniProt D1CCW1); conditions: 50 mM CHES pH 9.0, 40 °C; no amino acceptor; constant from kobs vs. substrate; read-out: pH 9.0, CHES buffer, 40°C / KD, / mM
T3 construct: gene ilvE; N-terminal His6TEV-tag, expressed in E. coli BL21(DE3)pLys; tag cut by TEV for crystals (309 visible residues, 5 N-terminal and 3 C-terminal residues invisible); functional dimer

[4] = target: T4, TaTT (transaminase from Thermobaculum terrenum) (Thermobaculum terrenum, UniProt D1CCW1, W31H/F38Y/G40V/R42S/Y100F); conditions: mP3O7; 50 mM Tris-HCl pH 8.0, 30 °C; no amino acceptor; constant from kobs vs. substrate; read-out: pH 8.0, Tris-HCl buffer, 30°C / KD, / mM
T4 construct: gene ilvE; N-terminal His6TEV-tag, expressed in E. coli BL21(DE3)pLys; tag cut by TEV for crystals (309 visible residues, 5 N-terminal and 3 C-terminal residues invisible); functional dimer

[5] = target: T5, TaTT (transaminase from Thermobaculum terrenum) (Thermobaculum terrenum, UniProt D1CCW1, S114R); conditions: mO1; 50 mM CHES pH 9.0, 40 °C; no amino acceptor; constant from kobs vs. substrate; read-out: pH 9.0, CHES buffer, 40°C / KD, / mM
T5 construct: gene ilvE; N-terminal His6TEV-tag, expressed in E. coli BL21(DE3)pLys; tag cut by TEV for crystals (309 visible residues, 5 N-terminal and 3 C-terminal residues invisible); functional dimer

[6] = target: T6, TaTT (transaminase from Thermobaculum terrenum) (Thermobaculum terrenum, UniProt D1CCW1, G40V/R42S/Y100F); conditions: mP3; 50 mM CHES pH 9.0, 40 °C; no amino acceptor; constant from kobs vs. substrate; read-out: pH 9.0, CHES buffer, 40°C / KD, / mM
T6 construct: gene ilvE; N-terminal His6TEV-tag, expressed in E. coli BL21(DE3)pLys; tag cut by TEV for crystals (309 visible residues, 5 N-terminal and 3 C-terminal residues invisible); functional dimer
T6 sequence (D1CCW1 entry or part of it G40V/R42S/Y100F): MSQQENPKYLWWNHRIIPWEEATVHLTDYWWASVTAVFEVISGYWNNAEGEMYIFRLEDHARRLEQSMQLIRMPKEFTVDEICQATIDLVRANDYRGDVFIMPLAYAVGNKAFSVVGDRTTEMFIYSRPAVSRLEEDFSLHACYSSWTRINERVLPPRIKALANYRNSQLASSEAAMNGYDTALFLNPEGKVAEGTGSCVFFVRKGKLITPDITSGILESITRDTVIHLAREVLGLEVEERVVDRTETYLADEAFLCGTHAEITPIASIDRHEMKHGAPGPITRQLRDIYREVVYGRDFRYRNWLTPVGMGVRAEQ

T3 sequence (D1CCW1 entry or part of it): as the sequence (D1CCW1 entry or part of it G40V/R42S/Y100F) above, with V40G, S42R, F100Y counted along it
T5 sequence (D1CCW1 entry or part of it S114R): as the sequence (D1CCW1 entry or part of it G40V/R42S/Y100F) above, with V40G, S42R, F100Y, S114R counted along it
T2 sequence (D1CCW1 entry or part of it G40V/Y100F): as the sequence (D1CCW1 entry or part of it G40V/R42S/Y100F) above, with S42R counted along it
T1 sequence (D1CCW1 entry or part of it G40V/R42S/Y100F/S114R): as the sequence (D1CCW1 entry or part of it G40V/R42S/Y100F) above, with S114R counted along it
T4 sequence (D1CCW1 entry or part of it W31H/F38Y/G40V/R42S/Y100F): as the sequence (D1CCW1 entry or part of it G40V/R42S/Y100F) above, with W31H, F38Y counted along it

Kd [1]: 1.5 ± 0.5 mM
Kd [2]: 13 ± 2 mM
Kd [3]: 81 ± 8 mM
Kd [4]: 44 ± 8 mM
Kd [5]: 3.3 ± 1.2 mM
Kd [6]: 2.6 ± 0.4 mM
Structure (SMILES): C[C@@H](N)c1ccccc1 [R-PEA, (R)-(+)-1-phenylethylamine]
